Drawing on patent US10189836B2, “Therapeutic compounds, compositions and methods of use thereof” (Genentech, Inc., priority 2015, dated 2019), this text covers Ki for 15 compounds.

For orientation: Ki means the dissociation constant of the complex between target and ligand, obtained from inhibition or displacement.

The target of assay [1] is isolated recombinant JAK1 kinase domain (Homo sapiens (Human), UniProt P23458). Description: JAK1 enzyme assay (Caliper LabChip, Ki). The assay is classed as biochemical. The settings on record: isolated recombinant JAK1 kinase domain, 1.5 nM enzyme, ATP 25 μM.
The target of assay [2] is isolated recombinant JAK2 kinase domain (Homo sapiens (Human), UniProt O60674). Description: JAK2 enzyme assay (Caliper LabChip, Ki). The format is biochemical. The settings on record: isolated recombinant JAK2 kinase domain, 0.2 nM enzyme, ATP 25 μM.
Sequence of isolated recombinant JAK2 kinase domain (O60674 849-1124): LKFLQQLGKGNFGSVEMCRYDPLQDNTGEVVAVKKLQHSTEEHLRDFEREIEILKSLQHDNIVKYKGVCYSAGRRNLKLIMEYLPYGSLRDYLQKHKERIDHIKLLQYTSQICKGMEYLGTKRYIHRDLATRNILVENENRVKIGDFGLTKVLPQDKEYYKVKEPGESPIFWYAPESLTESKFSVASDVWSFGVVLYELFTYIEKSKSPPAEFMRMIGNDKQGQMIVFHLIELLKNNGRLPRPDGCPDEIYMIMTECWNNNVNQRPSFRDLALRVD

Sequence of isolated recombinant JAK1 kinase domain (P23458 875-1153): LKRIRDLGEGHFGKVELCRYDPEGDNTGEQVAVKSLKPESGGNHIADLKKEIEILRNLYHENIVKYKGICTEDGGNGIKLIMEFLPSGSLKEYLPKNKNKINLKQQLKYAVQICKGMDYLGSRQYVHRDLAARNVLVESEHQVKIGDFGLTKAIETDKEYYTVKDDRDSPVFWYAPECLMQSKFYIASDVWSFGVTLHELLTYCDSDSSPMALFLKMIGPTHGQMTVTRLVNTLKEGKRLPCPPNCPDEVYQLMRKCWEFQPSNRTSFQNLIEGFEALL

Regarding `O=C(Cn1cc(Nc2nc3c(N4CC5CCC(C4)N5C(=O)N4CC(C(F)(F)F)C4)cccn3n2)cn1)N1CCC(CN2CCOCC2)CC1` [Example 121, 1-[4-(morpholinomethyl)-1-piperidyl]-2-[4-[[8-[8-[3-(trifluoromethyl)azetidine-1-carbonyl]-3,8-diazabicyclo[3.2.1]octan-3-yl]-[1,2,4]triazolo[1,5-a]pyridin-2-yl]amino]pyrazol-1-yl]ethanone], the Ki in assay [1] and in assay [2] was 0.7 nM each time.
Consider `CN1CCN(C(=O)Cn2cc(Nc3nc4c(N5CC6CCCC(C5)N6C(=O)N5CC(C(F)(F)F)C5)cccn4n3)cn2)CC1` [Example 122, 1-(4-methylpiperazin-1-yl)-2-[4-[[8-[9-[3-(trifluoromethyl)azetidine-1-carbonyl]-3,9-diazabicyclo[3.3.1]nonan-3-yl]-[1,2,4]triazolo[1,5-a]pyridin-2-yl]amino]pyrazol-1-yl]ethanone], for which the Ki in assay [1] is 0.4 nM; in assay [2], 0.3 nM.
As for `CC(C(=O)N1CCN(C)CC1)n1cc(Nc2nc3c(N4CC5CCC(C4)N5C(=O)C4CC(C(F)(F)F)C4)cccn3n2)cn1` (stereo not drawn) [Example 123, 1-(4-methylpiperazin-1-yl)-2-[4-[[8-[8-(3-(trifluoromethyl)-cyclobutanecarbonyl]-3,8-diazabicyclo[3.2.1]octan-3-yl]-[1,2,4]triazolo[1,5-a]pyridin-2-yl]amino]pyrazol-1-yl]propan-1-one], the Ki in assay [1] and in assay [2] was 0.5 nM each time.
Take `CC(C(=O)N1CCN(C)CC1)n1cc(Nc2nc3c(N4CC5CCC(C4)N5C(=O)C4CC(C(F)(F)F)C4)cccn3n2)cn1` (stereo not drawn) [Example 124, 1-(4-methylpiperazin-1-yl)-2-[4-[[8-[8-(3-(trifluoromethyl)-cyclobutanecarbonyl]-3,8-diazabicyclo[3.2.1]octan-3-yl]-[1,2,4]triazolo[1,5-a]pyridin-2-yl]amino]pyrazol-1-yl]propan-1-one]: the Ki came out at 1.9 nM in assay [1] and 3.7 nM in assay [2].
`CC(C(=O)N1CCN(C)CC1)n1cc(Nc2nc3c(N4CC5CCC(C4)N5C(=O)C4CC(C(F)(F)F)C4)cccn3n2)cn1` (stereo not drawn) [Example 125, 1-(4-methylpiperazin-1-yl)-2-[4-[[8-[8-(3-(trifluoromethyl)-cyclobutanecarbonyl]-3,8-diazabicyclo[3.2.1]octan-3-yl]-[1,2,4]triazolo[1,5-a]pyridin-2-yl]amino]pyrazol-1-yl]propan-1-one]: the inhibition constant Ki in assay [1] stood at 0.6 nM; in assay [2] it was 0.4 nM.
Take `CC(C(=O)N1CCN(C)CC1)n1cc(Nc2nc3c(N4CC5CCC(C4)N5C(=O)C4CC(C(F)(F)F)C4)cccn3n2)cn1` (stereo not drawn) [Example 126, 1-(4-methylpiperazin-1-yl)-2-[4-[[8-[8-(3-(trifluoromethyl)-cyclobutanecarbonyl]-3,8-diazabicyclo[3.2.1]octan-3-yl]-[1,2,4]triazolo[1,5-a]pyridin-2-yl]amino]pyrazol-1-yl]propan-1-one]: the Ki in assay [1] was found to be 2.5 nM; in assay [2] it was 1.6 nM.
Turning to `CN1CCN(C(=O)Cn2cc(Nc3nc4c(N5C[C@H]6CC[C@@H](C5)[C@H]6N(C)CCC(F)(F)F)cccn4n3)cn2)CC1` [Example 127, 1-(4-methylpiperazin-1-yl)-2-[4-[[8-[(1S,5R)-8-[methyl(3,3,3-trifluoropropyl)amino]-3-azabicyclo[3.2.1]octan-3-yl]-[1,2,4]triazolo[1,5-a]pyridin-2-yl]amino]pyrazol-1-yl]ethanone], the figures for the Ki in assay [1] and in assay [2] were 4.6 nM and 11.5 nM, respectively.
For the compound `CN1CCN(C(=O)Cn2cc(Nc3nc4c(N5C[C@H]6CC[C@@H](C5)[C@H]6OCc5ccc(C#N)cc5)cccn4n3)cn2)CC1` [Example 128, 4-[[(1S,5R)-3-[2-[[1-[2-(4-methylpiperazin-1-yl)-2-oxo-ethyl]pyrazol-4-yl]amino]-[1,2,4]triazolo[1,5-a]pyridin-8-yl]-3-azabicyclo[3.2.1]octan-8-yl]oxymethyl]benzonitrile], the inhibition constant Ki turned out to be 0.4 nM in assay [1] and 1 nM in assay [2].
`CN1CCN(C(=O)Cn2cc(Nc3nc4c(N5C[C@H]6CC[C@@H](C5)[C@H]6OCc5cccc(C#N)c5)cccn4n3)cn2)CC1` [Example 129, 3-[[(1S,5R)-3-[2-[[1-[2-(4-methylpiperazin-1-yl)-2-oxo-ethyl]pyrazol-4-yl]amino]-[1,2,4]triazolo[1,5-a]pyridin-8-yl]-3-azabicyclo[3.2.1]octan-8-yl]oxymethyl]benzonitrile]: the Ki was 0.6 nM in assay [1] and 2.3 nM in assay [2].
Consider `CC(C)(C#N)CNC1CCN(C(=O)Cn2cc(Nc3nc4c(N5CC6CCC(C5)N6C(=O)N5CC(C(F)(F)F)C5)cccn4n3)cn2)CC1` [Example 131, 2,2-dimethyl-3-[[1-[2-[4-[[8-[8-[3-(trifluoromethyl)azetidine-1-carbonyl]-3,8-diazabicyclo[3.2.1]octan-3-yl]-[1,2,4]triazolo[1,5-a]pyridin-2-yl]amino]pyrazol-1-yl]acetyl]-4-piperidyl]amino]-propanenitrile], for which the Ki was determined as 1.1 nM in assay [1] and 0.7 nM in assay [2].
For the compound `CSc1ccccc1S(=O)(=O)N1C2CCC1CN(c1cccn3nc(Nc4cnn(CC(=O)N5CCN(C)CC5)c4)nc13)C2` [Example 132, 1-(4-methylpiperazin-1-yl)-2-[4-[[8-[8-(2-methylsulfanylphenyl)sulfonyl-3,8-diazabicyclo[3.2.1]octan-3-yl]-[1,2,4]triazolo[1,5-a]pyridin-2-yl]amino]pyrazol-1-yl]ethanone], the Ki in assay [1] and in assay [2] was 0.4 nM each time.
Consider `CN1CCN(C(=O)Cn2cc(Nc3nc4c(N5CC6CCC(C5)N6S(=O)(=O)c5cccc(C(F)(F)F)c5)cccn4n3)cn2)CC1` [Example 133, 1-(4-methylpiperazin-1-yl)-2-[4-[[8-[8-(3-(trifluoromethyl)phenyl]sulfonyl-3,8-diazabicyclo[3.2.1]octan-3-yl]-[1,2,4]triazolo[1,5-a]pyridin-2-yl]amino]pyrazol-1-yl]ethanone], for which the Ki in assay [1] amounted to 0.8 nM; in assay [2] it was 1.5 nM.
For `CN1CCN(C(=O)Cn2cc(Nc3nc4c(N5CC6CCC(C5)N6S(=O)(=O)c5ccc(F)cc5)cccn4n3)cn2)CC1` [Example 134, 2-[4-[[8-[8-(4-fluorophenyl)sulfonyl-3,8-diazabicyclo[3.2.1]octan-3-yl]-[1,2,4]triazolo[1,5-a]pyridin-2-yl]amino]pyrazol-1-yl]-1-(4-methylpiperazin-1-yl)ethanone] the same measures were 0.4 nM and 0.5 nM.
Consider `CN1CCN(C(=O)Cn2cc(Nc3nc4c(N5CC6CCC(C5)N6S(=O)(=O)c5ccc(C(F)(F)F)cc5)cccn4n3)cn2)CC1` [Example 135, 1-(4-methylpiperazin-1-yl)-2-[4-[[8-[8-(4-(trifluoromethyl)phenyl]sulfonyl-3,8-diazabicyclo[3.2.1]octan-3-yl]-[1,2,4]triazolo[1,5-a]pyridin-2-yl]amino]pyrazol-1-yl]ethanone], for which the Ki is 0.2 nM in assay [1] and 0.4 nM in assay [2].
As to `CN1CCN(C(=O)Cn2cc(Nc3nc4c(N5CC6CCC(C5)N6S(=O)(=O)c5ccc(Cl)cc5F)cccn4n3)cn2)CC1` [Example 136, 2-[4-[[8-[8-(4-chloro-2-fluoro-phenyl)sulfonyl-3,8-diazabicyclo[3.2.1]octan-3-yl]-[1,2,4]triazolo[1,5-a]pyridin-2-yl]amino]pyrazol-1-yl]-1-(4-methylpiperazin-1-yl)ethanone], the inhibitory constant (Ki) in assay [1] turned out to be 2 nM; in assay [2] it was 6.2 nM.
